Square brackets hold non-standard residues; d marks the D form. Peptide text beside a SMILES is read from it.
Test system: established type II collagen arthritis in rats
Format: in vivo, rat
From the text: Rat collagen arthritis is an experimental model of polyarthritis that has been widely used for preclinical testing of numerous anti-arthritic agents that are either under preclinical or clinical investigation or are currently used as therapeutics in this disease. The hallmarks of this model are reliable onset and progression of robust, easily measurable polyarticular inflammation, marked cartilage destruction in association with pannus formation, and mild to moderate bone resorption and periosteal bone proliferation.
Intravenous (IV) efficacy of the JNK inhibitor of SEQ ID NO: 172 administered daily (QD) for 14 days (arthritis d1-14) for inhibition of the inflammation (paw swelling), cartilage destruction, and bone resorption that occurs in established type II collagen arthritis in rats was determined in said experimental model. […]
Female Lewis rats with established type II collagen arthritis were treated daily (QD) on arthritis days 1-14 by the intravenous (IV) route with vehicle (NaCl), SEQ ID NO: 172 (0.01, 0.1, 1, or 5 mg/kg), or the reference compound dexamethasone (Dex, 0.05 mg/kg). […] Efficacy evaluation was based on animal body weights, daily ankle caliper measurements, ankle diameter expressed as area under the curve (AUC), terminal hind paw weights, and histopathologic evaluation of ankles and knees of selected groups. […]

Compound: CC(C)C[C@H](NC(=O)[C@H](CC(N)=O)NC(=O)[C@H](CC(C)C)NC(=O)[C@@H](NC(=O)[C@@H](C)NC(=O)[C@@H]1CCCN1C(=O)[C@H](CCCNC(=N)N)NC(=O)[C@@H](CCCCN)NC(=O)[C@@H]1CCCN1C(=O)[C@H](CCCNC(=N)N)NC(=O)[C@@H](CCCNC(=N)N)NC(=O)[C@H](CCCNC(=N)N)NC(=O)[C@H](CCCNC(=N)N)NC(=O)[C@H](CCC(N)=O)NC(=O)[C@@H](CCCNC(=N)N)NC(=O)[C@H](CCCNC(=N)N)NC(=O)[C@H](CCCCN)NC(=O)[C@H](CCCCN)NC(=O)[C@H](N)CCCNC(=N)N)[C@@H](C)O)C(=O)N[C@H](Cc1ccccc1)C(N)=O [SEQ ID NO: 172, rKKRrQRRrRPkRPaTLNLf] (H-[dR]KKR[dR]QRR[dR]RP[dK]RP[dA]TLNL[dF]-NH2; N-terminus assumed)
- clinical and histopathology parameters (conclusion) (5 mg/kg IV QD 14 days): significant beneficial effect on the clinical and histopathology parameters
- daily ankle diameter measurements vs disease controls (5 mg/kg IV QD, p<0.05 days 4-12): reduced toward normal

Source: patent US10596223B2, “JNK inhibitor molecules for treatment of various diseases” (Xigen Inflammation Ltd., priority 2011, dated 2020)
